The values below come from US12338203B2 (TAISHO PHARMACEUTICAL CO., LTD., priority 2019, dated 2025).

Each structure is given as a SMILES string.

For the assay, the target named is T1, human LPAR1 (Homo sapiens, UniProt Q92633).
T1 construct: expressed in transfected cells
As to the kind of experiment: Test Example 1: antagonism against response of LPA-induced increase in intracellular Ca2+ concentration in RH7777 cells stably expressing human LPAR1. It is filed as cell-based. The note with it: RH7777 cells stably expressing human LPAR1; Fluo-4 fluorescence, FDSS6000; read-out: IC50 value (concentration producing 50% antagonism against response of LPA-induced increase in intracellular Ca2+ concentration) (converted). The procedure, abridged: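 RH7777 cells stably transfected with human LPAR1 were preincubated with test compound 30 min at 37 °C in HBSS/20 mM HEPES/probenecid/0.05% BSA buffer, pH 7.4, then LPA-stimulated.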

T1 sequence (Q92633 whole entry): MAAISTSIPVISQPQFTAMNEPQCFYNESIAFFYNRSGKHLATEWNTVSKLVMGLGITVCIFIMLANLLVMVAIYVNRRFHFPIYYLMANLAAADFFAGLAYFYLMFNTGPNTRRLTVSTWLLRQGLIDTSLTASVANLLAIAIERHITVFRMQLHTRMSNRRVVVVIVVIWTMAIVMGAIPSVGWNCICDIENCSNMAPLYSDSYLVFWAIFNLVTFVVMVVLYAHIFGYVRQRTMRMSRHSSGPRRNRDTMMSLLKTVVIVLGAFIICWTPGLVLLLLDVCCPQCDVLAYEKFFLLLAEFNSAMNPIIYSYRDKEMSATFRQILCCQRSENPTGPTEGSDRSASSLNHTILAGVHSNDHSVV

`CCOc1cc([C@@H](C)N(CCC(F)(F)Cc2ccccc2)C(=O)NC2(C(=O)O)CCOCC2)c(Cl)c(OCC)c1C(C)O` (stereo partly drawn) [Example 5-67, 4-{[{(1R)-1-[2-Chloro-3,5-Diethoxy-4-(1-Hydroxyethyl)Phenyl]Ethyl}(3,3-Difluoro-4-Phenylbutyl) Carbamoyl]Amino}Oxane-4-Carboxylic Acid]: the IC50 was 43.4 nM. Then `CCOc1c(C(C)=O)ccc([C@@H](C)N(CCO[C@@H](C)c2ccccc2)C(=O)NC2(C(=O)O)CC(OC)C2)c1C` (stereo partly drawn) [Example 4-130], with 6.66 nM. The figure for `CCOc1cc([C@@H](C)N(CCOCc2ccccc2)C(=O)NC2(C(=O)O)CCC2)cc(OCC)c1C(C)=O` [Example 4-101] is 1.25 nM. On to `CCOc1cc([C@@H](C)N(CCCCc2ccccc2)C(=O)N(C)C2(C(=O)O)CC(F)(F)C2)cc(OCC)c1C` [Example 2-1, 1-[{[(1R)-1-(3,5-Diethoxy-4-Methylphenyl)Ethyl](4-Phenylbutyl) Carbamoyl}(Methyl)Amino]-3,3-Difluorocyclobutane-1-Carboxylic Acid], for which the IC50 is 608 nM. On to `CCOc1cc(C(C)N(CCCCc2ccccc2)C(=O)NC2(C(=O)O)CC(F)(F)C2)cc(OCC)c1CO` (stereo not drawn) [Example 1-50, 1-{[{1-[3,5-Diethoxy-4-(Hydroxymethyl)Phenyl]Ethyl}(4-Phenylbutyl) Carbamoyl]Amino}-3,3-Difluorocyclobutane-1-Carboxylic Acid], for which the IC50 is 3.68 nM. Then `CCOc1cc(C#N)cc(C(C)N(CCCCc2ccccc2)C(=O)NC2(C(=O)O)CC(F)(F)C2)c1` (stereo not drawn) [Example 5-20], with 3.92 nM. The figure for `CC(c1cc(C(F)(F)F)cc(C(F)(F)F)c1)N(CCCCc1ccccc1)C(=O)NC1(C(=O)O)CC(F)(F)C1` (stereo not drawn) [Example 5-24] is 75.8 nM; for `CCOc1cc([C@@H](C)N(CCCc2ccncc2)C(=O)NC2(C(=O)O)CC(F)(F)C2)cc(COC)c1C` [Example 4-30] it is 178 nM. As for `COc1cc(C(C)N(CCOCc2ccccc2)C(=O)NC2(C(=O)O)CCC2)c(C)c(OC)c1C1CC1` (stereo not drawn) [Example 5-135], the IC50 is 1.88 nM. The figure for `CCNc1cc([C@@H](C)N(CCCCc2ccccc2)C(=O)NC2(C(=O)O)CC(F)(F)C2)cc(OCC)c1C#N` [Example 5-115] is 2.34 nM; for `COc1cc(C(C)N(CCOCc2ccccc2)C(=O)NC2(C(=O)O)CC(OC)C2)c(Cl)c(OC)c1C1CC1` (stereo not drawn) [Example 5-161] it is 1.46 nM; for `CCOc1c(C(C)=O)ccc([C@@H](C)N(CCCCc2ccccc2)C(=O)NC2CCC2C(=O)O)c1C` (stereo partly drawn) [Example 1-127] it is 33.7 nM. As for `CCOc1cc([C@@H](C)N(CCCCc2ccccc2)C(=O)NC2(C(=O)O)CC(F)(F)C2)cc(OCC)c1C1CC1` [Example 1-46, Sodium 1-({[(1R)-1-(4-Cyclopropyl-3,5-Diethoxyphenyl)Ethyl](4-Phenylbutyl) Carbamoyl}Amino)-3,3-Difluorocyclobutane-1-Carboxylate], the IC50 is 1 nM. Then `CCOc1cc([C@@H](C)N(CCCCc2ccccc2)C(=O)NC2(C(=O)O)CC(OC)C2)cc(OCC)c1C1(O)CC1` (stereo partly drawn) [Example 1-90], with 9.18 nM; and `COc1cc(OC)cc(C(C)N(CCCCc2ccccc2)C(=O)NC2(C(=O)O)CC(F)(F)C2)c1` (stereo not drawn) [Example 5-13], with 4.32 nM; and `CCOc1cc(C(C)N(CCCCc2ccccc2)C(=O)NC2CCC2C(=O)O)cc(OCC)c1C(C)=O` (stereo not drawn) [Example 1-125], with 3.09 nM. On to `CCOc1cc(C(C)N(CCCCc2ccccc2)C(=O)NC2(C(=O)O)CC(F)(F)C2)c2c(c1)N(CC)CC2` (stereo not drawn) [Example 5-97], for which the IC50 is 10.1 nM.

With `CCOc1cc([C@@H](C)N(CCCC(C)c2ccccc2)C(=O)NC2(C(=O)O)CC(F)(F)C2)cc(OCC)c1C` (stereo partly drawn) [Example 4-40, 1-({[(1R)-1-(3,5-Diethoxy-4-Methylphenyl)Ethyl](4-Phenylpentyl) Carbamoyl}Amino)-3,3-Difluorocyclobutane-1-Carboxylic Acid], the IC50 was 3.15 nM. Then `CCOc1cc([C@@H](C)N(CCC(F)(F)Cc2ccccc2)C(=O)NC2(C(=O)O)CC2)cc(OCC)c1C(C)=O` [Example 4-79], with 34.6 nM; and `CCOc1cc(C(C)N(CCCCc2ccccc2)C(=O)NC2(C(=O)O)CCCC2)cc(OC(C)C)c1C` (stereo not drawn) [Example 1-114], with 128 nM. In the case of `CCOc1cc([C@@H](C)N(CCOCc2ccccc2)C(=O)NC2CCOCC2C(=O)O)c(Cl)c(OCC)c1C(C)O` (single isomer, unassigned) [Example 5-70], the IC50 is 4.29 nM.

On to `CCOc1cc([C@@H](C)N(CCCCc2ccccc2)C(=O)NC2(C(=O)O)CN(C(C)=O)C2)cc(OCC)c1C` [Example 1-159, 1-Acetyl-3-({[(1R)-1-(3,5-Diethoxy-4-Methylphenyl)Ethyl](4-Phenylbutyl) Carbamoyl}Amino) Azetidine-3-Carboxylic Acid], for which the IC50 is 2.56 nM.

For `CCOc1cc([C@@H](C)N(CCO[C@@H](C)c2ccccc2Cl)C(=O)NC2(C(=O)O)CC(F)(F)C2)c(Cl)c(OCC)c1C(C)=O` [Example 4-175], the IC50 was 3.47 nM. As to `CCOc1cc(C(C)N(CCOCc2ccccc2)C(=O)NC2(C(=O)O)CC(OCC)C2)c(Cl)c(OCC)c1C1CC1` (stereo not drawn) [Example 5-221], the IC50 is 0.695 nM. The figure for `CCOc1cc([C@@H](C)N(CCO[C@@H](C)c2ccccc2)C(=O)NC2(c3nn[nH]n3)CC2)cc(OCC)c1C(C)=O` [Example 10-1, N-[(1R)-1-(4-Acetyl-3,5-Diethoxyphenyl)Ethyl]-N-{2-[(1S)-1-Phenylethoxy]Ethyl}-N′-[1-(2H-Tetrazol-5-Yl)Cyclopropyl]Urea] is 3.22 nM; for `CCOc1cc(C(C)N(CCOCc2ccccc2)C(=O)NC2(C(=O)O)CC(OC)C2)cc(OCC)c1C1CC1` (stereo not drawn) [Example 5-199] it is 0.761 nM; for `CCOc1cc([C@@H](C)N(CCOCc2ccccc2)C(=O)NC2(C(=O)O)CC(OCC)C2)cc(OCC)c1C(C)=O` (stereo partly drawn) [Example 4-109] it is 1.59 nM. Then `CCOc1cc([C@@H](C)N(CCCCc2ccccc2)C(=O)NC2(C(=O)O)CC(OCC)C2)cc(OCC)c1C(C)=O` (stereo partly drawn) [Example 1-95], with 3.09 nM; and `CCOc1cc(C(C)N(CCOCc2ccccc2)C(=O)NC2(C(=O)O)CC(OC)C2)c(Cl)c(OCC)c1C(C)=O` (stereo not drawn) [Example 5-205], with 2.74 nM; and `CCOc1cc([C@@H](C)N(CCCCc2ccccc2)C(=O)NC2(C(=O)O)CC(OC)C2)cc(OCC)c1C` (stereo partly drawn) [Example 1-91], with 1.99 nM. `CCOc1cc(C(C)N(CCCCc2ccccc2)C(=O)N[C@]2(C(=O)O)C[C@@H](OC)C2)c(C)c(OCC)c1C(C)=O` (stereo partly drawn) [Example 5-198]: the IC50 is 2.9 nM. For the compound `CCOc1cc([C@@H](C)N(CCCCc2ccccc2)C(=O)NC2(C(=O)O)CC(OC)C2)c(Cl)c(OCC)c1C(C)=O` (stereo partly drawn) [Example 5-47], the IC50 is 2.1 nM.

Take `CCOc1cc(C(C)N(CCCCc2ccccc2)C(=O)NC2(C(=O)O)CC(OCC)C2)cc(OCC)c1C(C)=O` (stereo not drawn) [Example 1-96]: the IC50 is 2.11 nM. Take `COc1cc([C@@H](C)N(CCO[C@@H](C)c2ccccc2)C(=O)NC2(C(=O)O)CC(OC)C2)c(Cl)c(OC)c1C(C)=O` (stereo partly drawn) [Example 5-124]: the IC50 was 10.8 nM.

`CCOc1cc([C@@H](C)N(CCCCc2ccccc2)C(=O)NC2(C(=O)O)CC(N3CCN(C)CC3)C2)cc(OCC)c1C` (stereo partly drawn) [Example 1-109]: the IC50 was 312 nM.

With `CCOc1cc(C(C)N(CCCCc2ccccc2)C(=O)NC2(C(=O)O)CC(F)(F)C2)cc(F)c1C(C)O` (stereo not drawn) [Example 1-72], the IC50 was 4.22 nM.
